DBAASP
Converted amounts (≈) assume the structure as drawn.

Experiments:
Test in all cases: ≥ marks a high value that may be exact or a test limit, other limits are often not marked, values filed in µg/mL are converted to µM
[1] = test system: Klebsiella pneumoniae
[2] = test system: Micrococcus luteus
[3] = test system: Escherichia coli
[4] = test system: Pseudomonas aeruginosa
[5] = test system: Staphylococcus aureus
[6] = test system: Shigella dysenteriae
[7] = test system: Salmonella typhimurium
[8] = test system: Staphylococcus epidermidis
[9] = test system: Proteus mirabilis
[10] = test system: Bacillus subtilis
[11] = test system: Staphylococcus aureus ATCC 2592
[12] = test system: Escherichia coli ATCC 25922
[13] = test system: Serratia marcescens
[14] = test system: Bacillus cereus
[15] = test system: Enterococcus faecalis
[16] = test system: Pasteurella multocida
[17] = test system: Leuconostoc lactis
[18] = test system: Streptococcus uberis
[19] = test system: Listeria innocua
[20] = test system: Acinetobacter baumannii
[21] = test system: Mycobacterium tuberculosis H37Rv
[22] = test system: Klebsiella pneumoniae ATCC 10031
[23] = test system: Pseudomonas aeruginosa ATCC 27853
[24] = test system: Bacillus subtilis ATCC 6633
[25] = test system: Staphylococcus aureus TK784
[26] = test system: Staphylococcus epidermidis ATCC 12228
[27] = test system: Salmonella enterica subsp. enterica serovar Typhimurium ATCC 14028
[28] = test system: Staphylococcus aureus ATCC 6538P
[29] = test system: Shigella dysenteriae ATCC 9752
[30] = test system: Micrococcus luteus ATCC 10240
[31] = test system: Staphylococcus aureus ATCC 9144
[32] = test system: Corynebacterium glutamicum ATCC 13032

Row | SMILES | MIC [1] [µM] | MIC [2] [µM] | MIC [3] [µM] | MIC [4] [µM] | MIC [5] [µM] | MIC [6] [µM] | MIC [7] [µM] | MIC [8] [µM] | MIC [9] [µM] | MIC [10] [µM] | MIC [12] [µM] | MIC [23] [µM] | further results
1 | CC(C)C[C@H](NC(=O)[C@H](C)NC(=O)CNC(=O)[C@H](CC(C)C)NC(=O)[C@@H](N)Cc1ccccc1)C(=O)N[C@@H](Cc1ccccc1)C(=O)N[C@@H](CCCCN)C(=O)N[C@H](C(=O)N[C@@H](C)C(=O)N[C@@H](Cc1c[nH]c2ccccc12)C(=O)N[C@@H](CCCCN)C(=O)O)C(C)C [FLGALFKVAWK] | 39.1 (≈ 50 µg/mL) | 19.5 (≈ 25 µg/mL) | 78.2 (≈ 100 µg/mL) | > 156 | 9.77 (≈ 12.5 µg/mL) | ≥ 78.2 | ≥ 156 | ≥ 39.1 | ≥ 156 | 19.5 (≈ 25 µg/mL) |  |  | 
2 | CC(C)C[C@H](NC(=O)[C@H](C)NC(=O)CNC(=O)[C@H](CC(C)C)NC(=O)[C@@H](N)Cc1ccccc1)C(=O)N[C@@H](Cc1ccccc1)C(=O)N[C@@H](CCCCN)C(=O)N[C@H](C(=O)N[C@@H](C)C(=O)N[C@@H](CO)C(=O)N[C@@H](CCCCN)C(=O)N[C@H](C(=O)O)C(C)C)C(C)C [FLGALFKVASKV] | > 156 | ≥ 156 | > 156 | > 156 | > 156 | ≥ 156 | ≥ 156 | ≥ 156 | ≥ 156 | ≥ 156 |  |  | 
3 | CC[C@H](C)[C@@H]1NC(=O)[C@H](CCCCN)NC(=O)[C@@H](NC(=O)[C@H](CCSC)NC(=O)[C@H](CC(C)C)NC(=O)[C@@H]2CCCN2C(=O)[C@H](Cc2ccccc2)NC(=O)[C@H](CC(C)C)NC(=O)[C@H](CC(C)C)NC(=O)[C@@H](N)Cc2ccccc2)CSSC[C@@H](C(=O)O)NC(=O)[C@H](CCCCN)NC(=O)CNC(=O)[C@H](CCC(N)=O)NC1=O [FLLFPLMCKIQGKC] | > 60.9 |  |  |  |  |  |  |  |  |  | > 60.9 |  | MIC [11]: 22.9 µM (≈ 37.5 µg/mL); MIC [13]: ≥ 60.9 µM
4 | CC[C@H](C)[C@H](NC(=O)[C@H](C)NC(=O)[C@@H]1CCCN1C(=O)[C@@H](NC(=O)[C@@H](NC(=O)[C@H](Cc1cnc[nH]1)NC(=O)[C@H](C)NC(=O)[C@H](C)NC(=O)[C@@H](NC(=O)[C@H](CCCCN)NC(=O)[C@H](C)NC(=O)[C@H](CC(C)C)NC(=O)[C@@H](NC(=O)CNC(=O)[C@H](Cc1ccccc1)NC(=O)[C@H](CC(C)C)NC(=O)CN)C(C)C)C(C)C)C(C)C)C(C)C)C(=O)N[C@@H](C)C(=O)N[C@@H](CCC(=O)O)C(=O)N[C@@H](Cc1cnc[nH]1)C(=O)N[C@@H](Cc1ccccc1)C(=O)O [GLFGVLAKVAAHVVPAIAEHF] |  | ≥ 46.6 | > 46.6 |  | > 46.6 |  |  | ≥ 46.6 |  |  |  |  | MIC [14]: ≥ 46.6 µM; MIC [15]: ≥ 46.6 µM; MIC [16]: ≥ 46.6 µM; MIC [17]: 23.3 µM (≈ 50 µg/mL); MIC [18]: ≥ 46.6 µM; MIC [19]: ≥ 46.6 µM
5 | CC(C)C[C@H](NC(=O)[C@H](Cc1c[nH]c2ccccc12)NC(=O)[C@H](CCCCN)NC(=O)[C@H](CC(C)C)NC(=O)[C@H](CC(C)C)NC(=O)[C@H](CCCCN)NC(=O)[C@H](CCCN=C(N)N)NC(=O)[C@H](Cc1c[nH]c2ccccc12)NC(=O)[C@H](CCCCN)NC(=O)[C@@H](N)CCCCN)C(=O)N[C@@H](C)C(=O)N[C@@H](CCCCN)C(=O)N[C@@H](CCCCN)C(N)=O [KKWRKLLKWLAKK] |  |  |  | 0.753 (≈ 1.3 µg/mL) | 2.49 (≈ 4.3 µg/mL) |  |  |  |  |  |  |  | MIC [15]: 1.56 µM (≈ 2.7 µg/mL); MIC [20]: 1.33 µM (≈ 2.3 µg/mL)
6 | CC(C)C[C@H](NC(=O)[C@H](Cc1c[nH]c2ccccc12)NC(=O)[C@H](Cc1c[nH]c2ccccc12)NC(=O)[C@H](CCCN=C(N)N)NC(=O)[C@H](CO)NC(=O)[C@H](CC(C)C)NC(=O)[C@H](CCCCN)NC(=O)[C@H](CCCCN)NC(=O)[C@@H](NC(=O)[C@H](C)N)C(C)C)C(=O)N[C@@H](CCCN=C(N)N)C(=O)N[C@@H](Cc1c[nH]c2ccccc12)C(=O)N[C@@H](Cc1c[nH]c2ccccc12)C(=O)N[C@@H](CCCCN)C(=O)N[C@@H](CCCCN)C(=O)O [AVKKLSRWWLRWWKK] |  |  |  |  |  |  |  |  |  |  |  |  | MIC [21]: 18.1 µM (≈ 37.5 µg/mL)
7 | CC(C)C[C@H](NC(=O)[C@H](C)NC(=O)CN)C(=O)N[C@@H](Cc1ccccc1)C(=O)N[C@@H](CCCCN)C(=O)N[C@H](C(=O)N[C@@H](C)C(=O)N[C@@H](CO)C(=O)N[C@@H](CCCCN)C(=O)N[C@H](C(=O)N[C@@H](CC(C)C)C(=O)N1CCC[C@H]1C(=O)N[C@@H](CO)C(=O)O)C(C)C)C(C)C [GALFKVASKVLPS] | > 152 | ≥ 152 | > 152 | > 152 | > 152 | ≥ 152 | ≥ 152 | ≥ 152 | ≥ 152 | ≥ 152 |  |  | 
8 | CC(C)C[C@H](NC(=O)[C@@H](N)Cc1c[nH]c2ccccc12)C(=O)N[C@@H](CCCCN)C(=O)N[C@@H](CCCCN)C(=O)N[C@@H](Cc1c[nH]c2ccccc12)C(N)=O [WLKKW] |  |  |  |  |  |  |  |  |  |  | > 105 | > 105 | MIC [22]: ≥ 105 µM; MIC [24]: ≥ 105 µM; MIC [25]: ≥ 105 µM; MIC [26]: > 105 µM; MIC [27]: > 105 µM; MIC [28]: ≥ 105 µM; MIC [29]: ≥ 105 µM; MIC [30]: ≥ 105 µM
9 | CC(C)C[C@H](NC(=O)[C@H](C)NC(=O)CNC(=O)[C@H](CC(C)C)NC(=O)[C@@H](N)Cc1ccccc1)C(=O)N[C@@H](Cc1ccccc1)C(=O)N[C@@H](CCCCN)C(=O)N[C@H](C(=O)N[C@@H](Cc1c[nH]c2ccccc12)C(=O)N[C@@H](CO)C(=O)N[C@@H](CCCCN)C(=O)O)C(C)C [FLGALFKVWSK] | > 154 | ≥ 154 | > 154 | > 154 | > 154 | ≥ 154 | ≥ 154 | ≥ 154 | ≥ 154 | ≥ 154 |  |  | 
10 | CC(C)C[C@H](NC(=O)[C@H](CC(C)C)NC(=O)[C@@H](N)Cc1c[nH]c2ccccc12)C(=O)N[C@@H](CCCCN)C(=O)N[C@@H](Cc1c[nH]c2ccccc12)C(N)=O [WLLKW] |  |  |  |  |  |  |  |  |  |  | > 107 | > 107 | MIC [22]: ≥ 107 µM; MIC [24]: ≥ 107 µM; MIC [25]: ≥ 107 µM; MIC [26]: > 107 µM; MIC [27]: > 107 µM; MIC [28]: ≥ 107 µM; MIC [29]: ≥ 107 µM; MIC [30]: ≥ 107 µM
11 | CC(C)C[C@H](NC(=O)[C@H](Cc1c[nH]c2ccccc12)NC(=O)[C@H](CCCCN)NC(=O)[C@H](CC(C)C)NC(=O)[C@H](CC(C)C)NC(=O)[C@H](Cc1c[nH]c2ccccc12)NC(=O)[C@@H](N)CCCCN)C(N)=O [KWLLKWL] |  |  |  |  |  |  |  |  |  |  | 40.6 (≈ 40 µg/mL) | 81.1 (≈ 79.9 µg/mL) | MIC [22]: ≥ 81.1 µM; MIC [24]: 20.3 µM (≈ 20 µg/mL); MIC [25]: ≥ 81.1 µM; MIC [26]: 81.1 µM (≈ 79.9 µg/mL); MIC [27]: > 81.1 µM; MIC [28]: 20.3 µM (≈ 20 µg/mL); MIC [29]: ≥ 81.1 µM; MIC [30]: ≥ 81.1 µM
12 | CC(C)[C@H](NC(=O)[C@@H](NC(=O)[C@H](CCCN=C(N)N)NC(=O)[C@H](CCCN=C(N)N)NC(=O)[C@H](Cc1c[nH]c2ccccc12)NC(=O)[C@H](Cc1c[nH]c2ccccc12)NC(=O)CN)[C@@H](C)O)C(=O)N[C@@H](CCCN=C(N)N)C(=O)N[C@@H](CCCCN)C(N)=O [GWWRRTVRK] |  |  |  |  |  |  |  |  |  |  | 50 (≈ 62.2 µg/mL) | 25 (≈ 31.1 µg/mL) | MIC [31]: ≥ 100 µM; MIC [32]: 3.1 µM (≈ 3.85 µg/mL)
